In ChEMBL document CHEMBL1129012, “Similarities and differences in the DNA binding/cleaving specificities and mechanisms of [SalenMn(III)]+ and [TMPPMn(III)]5+” (Bioorg Med Chem Lett, 1996) one finds Activity data, which are given here for two substances.

This experiment has as its system Nucleic Acid. Kind of experiment: DNA binding/cleaving affinity was determined; Active. The format is nucleic-acid assay.

Active and inactive are the calls of the source. The rule behind the calls is not given here.

For “Complex of [SalenMn(III)]+ (Salen=N,N'-ethylenebis(salicylideneaminato))”, the outcome was Active. With “[TMPPMn(III)] 5+ (TMPP=meso-tetrakis(4-N-methylpyridiniumyl)porphyrinato))” the entry was “Active”.
